{"source": "patent US9006294B2", "about": "“Oral pharmaceutical formulation of pelubiprofen with improved dissolution rate and stability” (Daewon Pharm., Co., Ltd., priority 2008, dated 2015)", "key": {"[1]": {"assay": "Dissolution test of pelubiprofen tablets, Paddle Method of Korean Pharmacopoeia", "assay_type": "physicochemical", "from_the_text": "In accordance with the present invention, mean particle size of pelubiprofen preferably ranges from 1 to 30 μm. For example, pelubiprofen particles are difficult to prepare when less than 1 μm in mean particle size, although their dissolution rate increases thanks to the increased surface area thereof. On the other hand, pelubiprofen particles exceeding 30 μm in size have a decreased dissolution rate.\nPelubiprofen tablets differing in the mean particle size of pelubiprofen and the kinds and content of additives were measured for dissolution rate as follows.\nA dissolution test was performed on the pelubiprofen tablets prepared in Examples 1 to 20 and Comparative Examples 1 to 18.\nThe dissolution test was performed according to the procedure of Paddle Method described in Korean Pharmacopoeia. In this regard, one tablet was tested in 900 mL of a dissolution medium (pH 1.2) at 37±0.5° C., with a maintenance of paddle rotation speed at 50 rpm. After a 45-min test, the dissolution medium was taken and filtered through a 0.45 μm filter, followed by the UV analysis of the filtrate."}, "[2]": {"assay": "Related compounds in pelubiprofen combined with single additives, stored two weeks at 60° C.", "assay_type": "physicochemical", "conditions": "pelubiprofen 20 mg plus additive", "method": "Increased amounts of related compounds were measured after oral pharmaceutical formulations with different mean particle sizes (27.4 μm, 45.6 μm) of pelubiprofen in combination with different amounts of various additives were stored for two weeks under the severe condition of 60° C."}}}
{"compound": "CC(C(=O)O)c1ccc(/C=C2\\CCCCC2=O)cc1", "note": "(centres unmarked) [pelubiprofen, 2-[4-(2-oxocyclohexylidenemethyl)phenyl]propionic acid]", "values": [{"measurement": "dissolution rate", "setting": "[1]; mean particle size of pelubiprofen 9.3 μm", "value": 85.8, "unit": "%"}, {"measurement": "dissolution rate", "setting": "[1]; mean particle size of pelubiprofen 19.1 μm", "value": 75.3, "unit": "%"}, {"measurement": "dissolution rate", "setting": "[1]; mean particle size of pelubiprofen 27.4 μm", "value": 70.4, "unit": "%"}, {"measurement": "dissolution rate", "setting": "[1]; mean particle size of pelubiprofen 45.6 μm", "value": 41.4, "unit": "%"}, {"measurement": "Increase of Related Cpd.", "setting": "[2]; MPS of pelubiprofen 27.4 μm", "value": 9.5, "unit": "%"}, {"measurement": "Total Related Cpd.", "setting": "[2]; MPS of pelubiprofen 27.4 μm", "value": 0.461, "unit": "%"}, {"measurement": "Increase of Related Cpd.", "setting": "[2]; MPS of pelubiprofen 45.6 μm", "value": 2.6, "unit": "%"}, {"measurement": "Total Related Cpd.", "setting": "[2]; MPS of pelubiprofen 45.6 μm", "value": 0.432, "unit": "%"}]}
